Values quoted from earlier work, collected in patent US20250235469A1, “Synergistic combinations of Finasteride, Dutasteride, and Minoxidil” (priority 2024, published 2025).

Assays:
[1] = molecular target: T1, 5α-reductase type 1 isoenzyme (Homo sapiens, UniProt P18405)
T1 sequence (P18405 1-259): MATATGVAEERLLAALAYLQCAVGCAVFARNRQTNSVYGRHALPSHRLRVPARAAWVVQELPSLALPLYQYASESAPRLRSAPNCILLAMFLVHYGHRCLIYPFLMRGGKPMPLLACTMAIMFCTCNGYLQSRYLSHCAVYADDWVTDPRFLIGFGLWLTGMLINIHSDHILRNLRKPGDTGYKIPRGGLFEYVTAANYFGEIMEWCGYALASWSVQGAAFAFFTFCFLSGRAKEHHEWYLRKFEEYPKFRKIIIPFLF

[2] = molecular target: T2, 5α-reductase type 2 isoenzyme (Homo sapiens, UniProt P31213)
T2 sequence (P31213 1-254): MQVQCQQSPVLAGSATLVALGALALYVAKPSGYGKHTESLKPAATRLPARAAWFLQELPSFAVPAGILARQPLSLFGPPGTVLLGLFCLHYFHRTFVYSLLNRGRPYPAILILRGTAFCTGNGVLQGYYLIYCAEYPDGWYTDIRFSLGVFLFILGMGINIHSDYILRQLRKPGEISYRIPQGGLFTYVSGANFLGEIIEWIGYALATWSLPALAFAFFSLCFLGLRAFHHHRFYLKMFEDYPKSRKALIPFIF

[3] = in vivo
DHT levels = conditions: 5 mg daily dose; 2004 study

Compound | inhibition of type 1 isoenzyme of 5α-reductase [1] | inhibition of type 2 isoenzyme of 5α-reductase [2] | half-life [3] | reduced DHT levels (DHT levels) [%] | increase in hair count (hair count; men, 2006 study, dutasteride compared to finasteride) | hair count and hair loss in users (hair count; studies of finasteride users)
C[C@]12C=CC(=O)N[C@@H]1CC[C@@H]1[C@@H]2CC[C@]2(C)[C@@H](C(=O)Nc3cc(C(F)(F)F)ccc3C(F)(F)F)CC[C@@H]12 [dutasteride, N-[2,5-bis(trifluoromethyl)phenyl]-3-oxo-4-aza-5α-androst-1-ene-17β-carboxamide] | inhibits both the types 1 and 2 isoenzymes | inhibits both the types 1 and 2 isoenzymes | several months | 98.4 | higher increase in hair count | 
CC(C)(C)NC(=O)[C@H]1CC[C@H]2[C@@H]3CC[C@H]4NC(=O)C=C[C@]4(C)[C@H]3CC[C@]12C [finasteride, 17β-(N-tert-butylcarbamoyl)-4-aza-5α-androst-1-en-3-one] |  | only inhibits the type 2 isoenzyme | only a few hours | 70.8 |  | both an increase in hair count and a reduction in hair loss
